The values that follow come from publication PMC9387934, “Randomized single oral dose phase 1 study of safety, tolerability, and pharmacokinetics of Iminosugar UV-4 Hydrochloride (UV-4B) in healthy subjects” (PLoS Neglected Tropical Diseases, 2022).

Data set [1] is described as follows: Reproductive toxicity upper limit study in rats, 12 days. The settings on record: 50 mg/kg/day. The data set is classed as in vivo, rat. On the procedure: 7. Reproductive toxicity:
UV-4B has been evaluated for developmental and reproductive toxicity in fertility and early embryonic development in rats, embryo-fetal development in rats and rabbits, and pre- and postnatal development in rats. In male and female rats given UV-4B at 8, 20, and 50 mg/kg/day before mating and continuing through Gestation Day 13, a […]
observed at 50 mg/kg/day. […]
count but following a 21-week treatment-free period there was complete recovery in pregnancy and fertility indices However, decrease in testicular weight, sperm motility […]
identify the upper limit of reproductive toxicity, a dose of 50 mg/kg/day for 12 […]
In a study designed to identify the upper limit of reproductive toxicity, a dose of 50 […]
rabbit offspring. The rat and rabbit doses are equivalent to 486 and 966 mg/day, […]
In summary, findings that have been identified in the UV-4B toxicology studies so far include effects on the GI tract (including ulcers/erosions), lymphocytes and lymphoid tissue, reduction in PLT count, and increases in transaminases (AST>ALT). Findings were generally consistent across mouse, dog, and rat, apart from the isolated finding of swollen paws/legs and perioral appearance and red skin which was seen only in the rat. […]

On the set-up of data set [2]: method as in Investigator’s Brochure (IB). The settings on record: 50 mg/kg/day for 12 days; ref Investigator’s Brochure (IB); cited from earlier work.
The conditions of data set [3]: cited from earlier work.
Data set [4] concerns human ether-a-go-go-related gene potassium channel. As to conditions: at UV-4 concentration more than 20-fold higher than expected at the planned ceiling dose in humans; ref Investigator’s Brochure (IB); cited from earlier work.
The nature of data set [5]: Cardiovascular assessment in dogs, single dose GLP study (UV4-COV-0023). The data set is classed as in vivo. As to conditions: dog, 50 mg/kg. The text has this: dependent from lowest to highest partitioning in mouse, rat, human, and dog. Mean blood cell partitioning ranged from 29.7% to 37.2% in mouse, 32.1% to 35.1% in rat, 32.7% to 53.3% in human, and 58.6% to 63.8% in dog. […]
hepatocytes. Metabolism was minimal and appears to involve O-demethylation, oxidation, and direct glucuronidation of UV-4. Three metabolites were tentatively identified in mouse and dog hepatocytes, whereas only the O-demethylation and oxidation metabolites, but not the direct glucuronidation product of UV-4, were found in human hepatocytes.
Following a single oral dose, UV-4 appears to be rapidly excreted with t1/2 values ranging from 2 hours in ferrets, 3 to 5 hours in mice and rats, and 4 to 9 hours in dogs. In rats, urinary excretion of UV-4 after an oral dose of UV-4B was rapid, with the highest percent dose excreted in the initial 0 to 4 hour period after dosing. […]
Based on the dog NOAEL [10 mg/kg/dose TID] and the appropriate conversion recommended in the FDA guidance (e.g., 60 kg body weight for humans), the HED for the NOAEL of UV-4B in dog is 333 mg TID. Considering that the lowest dose tested in dogs (2 mg/kg TID or expressed as HED, 67 mg TID) was associated with decreases in PLT count (mild), increases in aPTT (very mild), increases in AST (up to 3x BL), and histopathological changes, a 100-fold safety factor was applied to the NOAEL. […]

Another data set deals with CYP2E1. More on the design: method as in Investigator’s Brochure (IB). The settings on record: in vitro; ref Investigator’s Brochure (IB); cited from earlier work.
[6] abbreviates: dog, 2 TID mg/kg, Day 28 (Recovery).
Setting [7] is: dog, 10 TID mg/kg (NOAEL), Day 28 (Recovery).
The mark [8] stands for this setting: dogs, 10 mg/kg/dose TID, ref Investigator’s Brochure (IB).

Structures can show the parent of a compound that is named as a salt. Where two headings read alike, the source gives them in different places.

Turning to `COCCCCCCCCCN1C[C@H](O)[C@@H](O)[C@H](O)[C@H]1CO` [UV-4B, N-(9’-methoxynonyl)-1-deoxynojirimycin hydrochloride], the “Human equivalent of the rat dose” value in data set [1] is 486 mg/day. In data set [2], the “Finding in rat offspring” value is “increase in skeletal malformations”. In data set [3] (setting [6]), the AST entry is recorded as “−”, the Decreased thymus weight entry is “−”, the Lymphocyte depletion entry is “−” and the PLT result is on record as “−”. Moreover, the Decreased thymus weight result in data set [3] (dog, 10 TID mg/kg (NOAEL), Day 28 (Recovery), females) is listed as “−(F)”. For the same compound, in data set [3] (dog, 10 TID mg/kg (NOAEL), Day 28 (Recovery), males), the Decreased thymus weight result is recorded as “↓(M)”. In data set [3] (setting [7]), the ALT result is on record as “−”; the AST result is “−”; the “Inverted AST/ALT ratio” value was “−”; the “Lymphoid depletion in thymus, spleen, lymph nodes and GALT” value was “−”. Moreover, in data set [3] (setting [7]), the Nonformed feces result is given as “−”, the PLT entry was “−”, the Reticulocyte count entry is “−” and the aPTT entry was “−”. Also, in data set [3] (setting [8]), the “Increase in ALT” value is on record as “up to 2.9 x BL”, the “Increase in AST” value is “up to 9.7 x BL” and the “Increase in aPTT” value is recorded as 2.2 x BL. Further, in data set [3] (dogs, 14 days of TID administration, ref Investigator’s Brochure (IB)), the NOAEL is given as 30 mg/kg/day. For the same compound, in data set [3] (dogs, 14 days, lowest dose exceeded the NOEL, ref Investigator’s Brochure (IB)), the “No observed effect level (NOEL)” value is on record as less than 2 mg/kg/dose TID. The NOAEL in data set [3] (dogs, 14 days, ref Investigator’s Brochure (IB)) was 10 mg/kg/dose TID. In addition, in data set [3] (dogs, end of dosing phase, at NOAEL 30 mg/kg/day, ref Investigator’s Brochure (IB)), the “Average (male and female) AUC(0-8)” value is listed as 10,940 ng•h/mL. In addition, in data set [4], the “Inhibition of hERG potassium channel” value is reported as “did not inhibit”. In addition, the “Multiple of predicted minimum clinically efficacious dose at which arterial pulse pressure decreased” value in data set [5] was “approximately 30 fold”.
With `COCCCCCCCCCN1C[C@H](O)[C@@H](O)[C@H](O)[C@H]1CO` [UV-4, N-(9’-methoxynonyl)-1-deoxynojirimycin], in the data set with CYP2E1, the “Direct inhibition of CYP2E1” value was “No clinically relevant direct inhibition”.
